34 compounds from patent US11628160B2, “Compositions and methods for treating brain injury” (Azevan Pharmaceuticals, Inc., priority 2017, dated 2023) can be followed below.

This test deals with T1, human V1a receptor (Homo sapiens, UniProt P37288).
T1 construct: host or cells: CHO cells
Kind of test: Human vasopressin V1a receptor binding assay. To be noted: hV1a CHO cell line, competition with 1 nM 3H-AVP; for IC50: read-out: V1a Binding Affinity IC50; for Ki: read-out: V1a Ki. As to the method:
EXAMPLE. Human vasopressin V1a receptor binding assay. A cell line expressing the human V1a receptor in CHO cells (henceforth referred to as the hV1a cell line) was obtained from Dr. Michael Brownstein, NIMH, Bethesda, Md., USA. The hV1a cDNA sequence is described by Thibonnier et al., Journal of Biological Chemistry, 269, 3304-3310 (1994), and the expression method was the same as described by Morel et al. (1992). The hV1a cell line was grown in alpha-MEM with 10% fetal bovine serum and 250 ug/ml G418 (Gibco, Grand Island, N.Y., USA). For competitive binding assay, hV1a cells were plated into 6-well culture plate at 1:10 dilution from a confluency flask, and maintained in culture for at least two days. Culture medium was then removed, cells were washed with 2 ml binding buffer (25 mM Hepes, 0.25% BSA, 1×DMEM, PH=7.0). To each well, 990 μl binding buffer containing 1 nM 3H-AVP was added, and followed by 10 μl series diluted Example compounds dissolved in DMSO. […] 100 nM cold AVP (Sigma) was used to assess non-specific binding. Cells were incubated for 45 minutes at 37° C., assay mixture was removed and each well was washed three times with PBS (pH=7.4). 1 ml 2% SDS was added per well and plates were let sit for 30 minutes. The whole content in a well was transferred to a scintillation vial. Each well was rinsed with 0.5 ml PBS which was then added to the corresponding vial. Scintillation fluid (Ecoscint, National Diagnostics, Atlanta, Ga.) was then added at 3 ml per vial. Samples were counted in a liquid scintillation counter (Beckman LS3801). IC50 values were calculated by Prism Curve fitting software.
All of the alkanedioic esters and amides exemplified in the foregoing examples dissolved in DMSO were tested in this assay. Binding curves were generated according to methods described by Thibonnier et al. (1994). [^3H]-AVP was added to the hV1a cell cultures followed by 10-fold dilutions of each test compound.

T1 sequence (P37288 whole entry): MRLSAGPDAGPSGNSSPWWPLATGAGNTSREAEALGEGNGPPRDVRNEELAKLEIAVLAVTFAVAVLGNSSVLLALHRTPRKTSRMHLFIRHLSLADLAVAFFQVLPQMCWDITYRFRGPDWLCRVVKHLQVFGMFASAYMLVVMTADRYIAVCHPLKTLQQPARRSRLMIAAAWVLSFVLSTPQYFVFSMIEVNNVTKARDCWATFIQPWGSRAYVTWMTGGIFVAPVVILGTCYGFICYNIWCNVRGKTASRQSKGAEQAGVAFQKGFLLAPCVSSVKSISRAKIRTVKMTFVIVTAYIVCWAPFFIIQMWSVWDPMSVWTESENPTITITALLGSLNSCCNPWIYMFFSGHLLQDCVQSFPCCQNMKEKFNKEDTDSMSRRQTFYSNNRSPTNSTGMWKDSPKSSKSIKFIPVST

In general, IC50 refers to the concentration that gives 50% inhibition. For orientation: Ki means the equilibrium dissociation constant of an inhibitor or competing ligand from its target. With `O=C(NC1(c2ccccc2)CCCC1)C(CCC(=O)N1CCN(C2CCCCC2)CC1)N1C(=O)C(N2C(=O)OCC2c2ccccc2)C1C=Cc1cccc(Cl)c1` (centres unmarked) [Example 244], the IC50 was found to be 3.4 nM and the Ki was 2.1 nM.

As to `O=C(NC(c1ccccc1)C(F)(F)F)C(CC(=O)N1CCC(N2CCCCC2)CC1)N1C(=O)C(N2C(=O)OCC2c2ccccc2)C1CCc1ccccc1` (centres unmarked) [Example 623], the Ki was determined as 0.85 nM.

Take `O=C(NCc1cccc(C(F)(F)F)c1)[C@H](CCC(=O)N1CCN(N2CCCC2)CC1)N1C(=O)[C@@H](N2C(=O)OC[C@@H]2c2ccccc2)[C@H]1/C=C/c1ccccc1` [Example 91]: the IC50 came out at 3.24 nM and the Ki is 1.99 nM.

`CC(C)(NC(=O)C(CCC(=O)N1CCN(C2CCCCC2)CC1)N1C(=O)C(N2C(=O)OCC2c2ccccc2)C1C=Cc1ccccc1)c1ccccc1` (centres unmarked) [Example 204]: the IC50 was determined as 6 nM and the Ki was determined as 3.7 nM.

In the case of `O=C(NCc1cc(C(F)(F)F)cc(C(F)(F)F)c1)C(CCC(=O)N1CCN(C2CCCCC2)CC1)N1C(=O)C(N2C(=O)OCC2c2ccccc2)C1C=Cc1ccccc1` (centres unmarked) [Example 188], the IC50 was found to be 7.26 nM and the Ki came to 4.45 nM.

Take `O=C(NCc1cc(Cl)cc(Cl)c1)C(CCC(=O)N1CCN(C2CCCCC2)CC1)N1C(=O)C(N2C(=O)OCC2c2ccccc2)C1C=Cc1ccccc1` (centres unmarked) [Example 174]: the IC50 was determined as 1.46 nM and the Ki came out at 0.89 nM.

With `COc1cc(CNC(=O)C(CCC(=O)N2CCN(C3CCCCC3)CC2)N2C(=O)C(N3C(=O)OCC3c3ccccc3)C2C=Cc2ccccc2)cc(OC)c1` (centres unmarked) [Example 201], the IC50 is 10.5 nM and the Ki came out at 6.43 nM.

As to `O=C(NCc1cccc(C(F)(F)F)c1)[C@H](CC(=O)N1CCN(C2CCCCC2)CC1)N1C(=O)[C@@H](N2C(=O)OC[C@@H]2c2ccccc2)[C@H]1/C=C/c1ccccc1` [Example 66], the IC50 was determined as 50 nM.

`O=C(NCc1ccccc1C(F)(F)F)C(CCC(=O)N1CCN(C2CCCCC2)CC1)N1C(=O)C(N2C(=O)OCC2c2ccccc2)C1C=Cc1ccccc1` (centres unmarked) [Example 182]: the IC50 is 1.52 nM and the Ki was found to be 0.93 nM.

Turning to `O=C(NC1CCCc2ccccc21)C(CCC(=O)N1CCN(C2CCCC2)CC1)N1C(=O)C(N2C(=O)OCC2c2ccccc2)C1C=Cc1ccccc1` (centres unmarked) [Example 241], the IC50 is 2 nM and the Ki was determined as 1.24 nM.

For `COc1cccc(C=CC2C(N3C(=O)OCC3c3ccccc3)C(=O)N2C(CCC(=O)N2CCN(C3CCCCC3)CC2)C(=O)NC2CCCc3ccccc32)c1` (centres unmarked) [Example 242], the IC50 came out at 2.2 nM and the Ki was 1.36 nM.

On to `O=C(NCc1cccc(C(F)(F)F)c1)C(CC(=O)N1CCN(N2CCCC2)CC1)N1C(=O)C(N2C(=O)OCC2c2ccccc2)C1C=Cc1ccccc1` (centres unmarked) [Example 47], for which the IC50 was roughly 50 nM.

Consider `O=C(CC[C@@H](C(=O)N[C@@H]1CCCc2ccccc21)N1C(=O)[C@@H](N2C(=O)OC[C@@H]2c2ccccc2)[C@H]1/C=C/c1ccccc1)N[C@@H]1CCN(Cc2ccccc2)C1` [Example 221AD], for which the IC50 is roughly 50 nM.

For `O=C(NCc1ccccn1)C(CCC(=O)N1CCN(C2CCCCC2)CC1)N1C(=O)C(N2C(=O)OCC2c2ccccc2)C1C=Cc1ccccc1` (centres unmarked) [Example 208], the IC50 was 16.3 nM and the Ki amounted to 10 nM.

Regarding `Cc1ccc(CNC(=O)C(CCC(=O)N2CCN(C3CCCCC3)CC2)N2C(=O)C(N3C(=O)OCC3c3ccccc3)C2C=Cc2ccccc2)o1` (centres unmarked) [Example 212], the IC50 was determined as 0.95 nM and the Ki was found to be 0.58 nM.

Turning to `O=C(NC1CCCc2ccccc21)C(CCC(=O)N1CCN(C2CCCCC2)CC1)N1C(=O)C(N2C(=O)OCC2c2ccccc2)C1C=Cc1cc(Cl)cc(Cl)c1` (centres unmarked) [Example 252], the IC50 came to 1.8 nM and the Ki is 1.1 nM.

Consider `COc1ccccc1CNC(=O)C(CCC(=O)N1CCN(C2CCCCC2)CC1)N1C(=O)C(N2C(=O)OCC2c2ccccc2)C1C=Cc1ccccc1` (centres unmarked) [Example 220], for which the IC50 was 5.3 nM and the Ki was determined as 3.26 nM.

As to `O=C(NCc1cccc(OC(F)(F)F)c1)C(CCC(=O)N1CCN(C2CCCCC2)CC1)N1C(=O)C(N2C(=O)OCC2c2ccccc2)C1C=Cc1ccccc1` (centres unmarked) [Example 172], the IC50 stood at 4.5 nM and the Ki was 2.78 nM.

`O=C(NCc1cc(C(F)(F)F)ccc1F)C(CCC(=O)N1CCN(C2CCCCC2)CC1)N1C(=O)C(N2C(=O)OCC2c2ccccc2)C1C=Cc1ccccc1` (centres unmarked) [Example 177]: the IC50 was 0.67 nM and the Ki came out at 0.41 nM.

As for `O=C(NC1(c2ccccc2)CC1)C(CCC(=O)N1CCN(C2CCCCC2)CC1)N1C(=O)C(N2C(=O)OCC2c2ccccc2)C1C=Cc1ccccc1` (centres unmarked) [Example 207], the IC50 is 4.48 nM and the Ki came to 2.74 nM.

As for `CN(Cc1cccc(C(F)(F)F)c1)C(=O)C(CC(=O)N1CCC(N2CCCCC2)CC1)N1C(=O)C(N2C(=O)OCC2c2ccccc2)C1C=Cc1cccc(Cl)c1` (centres unmarked) [Example 247], the IC50 was 0.6 nM and the Ki is 0.39 nM.

On to `Cc1ccc(C2(NC(=O)C(CCC(=O)N3CCN(C4CCCCC4)CC3)N3C(=O)C(N4C(=O)OCC4c4ccccc4)C3C=Cc3ccccc3)CC2)cc1` (centres unmarked) [Example 221AP], for which the Ki is 3.8 nM.

As for `O=C(NCc1ccco1)C(CCC(=O)N1CCN(C2CCCCC2)CC1)N1C(=O)C(N2C(=O)OCC2c2ccccc2)C1C=Cc1ccccc1` (centres unmarked) [Example 211], the IC50 was found to be 5.37 nM and the Ki stood at 3.29 nM.

With `CC(NC(=O)C(CC(=O)N1CCC(N2CCCCC2)CC1)N1C(=O)C(N2C(=O)OCC2c2ccccc2)C1CCc1cccc(Br)c1)c1ccccc1` (centres unmarked) [Example 606], the IC50 is 0.53 nM and the Ki was determined as 0.32 nM.

As to `O=C(NC1CCc2ccccc21)C(CCC(=O)N1CCN(C2CCCCC2)CC1)N1C(=O)C(N2C(=O)OCC2c2ccccc2)C1C=Cc1ccccc1` (centres unmarked) [Example 221R], the IC50 is 5.13 nM and the Ki worked out at 3.14 nM.

On to `O=C(NCc1cccc(C(F)(F)F)c1F)C(CCC(=O)N1CCN(C2CCCCC2)CC1)N1C(=O)C(N2C(=O)OCC2c2ccccc2)C1C=Cc1ccccc1` (centres unmarked) [Example 180], for which the IC50 was found to be 0.33 nM and the Ki was 0.2 nM.

For the compound `COc1ccc(OC)c(CNC(=O)C(CCC(=O)N2CCN(C3CCCCC3)CC2)N2C(=O)C(N3C(=O)OCC3c3ccccc3)C2C=Cc2ccccc2)c1` (centres unmarked) [Example 219], the concentration for half-maximal inhibition (IC50) stood at 0.63 nM and the Ki worked out at 0.39 nM.

On to `CCN1CCN(C(=O)CCC(C(=O)NC2(c3ccccc3)CCCC2)N2C(=O)C(N3C(=O)OCC3c3ccccc3)C2C=Cc2ccccc2)CC1` (centres unmarked) [Example 239], for which the IC50 turned out to be 6.6 nM and the Ki was determined as 4 nM.

On to `O=C(NC1CCCc2ccccc21)C(CCC(=O)N1CCN(C2CCCCC2)CC1)N1C(=O)C(N2C(=O)OCC2c2ccccc2)C1C=Cc1cccc(C(F)(F)F)c1` (centres unmarked) [Example 246], for which the IC50 worked out at 2.1 nM and the Ki came out at 1.3 nM.

Regarding `CC(NC(=O)C(CC(=O)N1CCC(N2CCCCC2)CC1)N1C(=O)C(N2C(=O)OCC2c2ccccc2)C1CCc1cccc(Cl)c1)c1ccccc1` (centres unmarked) [Example 559], the half-maximal inhibitory concentration (IC50) was found to be 0.12 nM and the Ki was determined as 0.073 nM.

Consider `O=C(NCc1cc(Cl)ccc1Cl)C(CCC(=O)N1CCN(C2CCCCC2)CC1)N1C(=O)C(N2C(=O)OCC2c2ccccc2)C1C=Cc1ccccc1` (centres unmarked) [Example 175], for which the IC50 is 4.56 nM and the Ki was 2.79 nM.

As for `O=C(NCc1cccc(C(F)(F)F)c1)C(CC(=O)N1CCN(N2CCCC2)CC1)N1C(=O)C(N2C(=O)OCC2c2ccccc2)C1C=Cc1ccccc1` (centres unmarked) [Example 134B], the IC50 turned out to be 44.8 nM and the Ki came out at 27.5 nM.

As for `O=C(NCc1cccs1)C(CCC(=O)N1CCN(C2CCCCC2)CC1)N1C(=O)C(N2C(=O)OCC2c2ccccc2)C1C=Cc1ccccc1` (centres unmarked) [Example 213], the IC50 worked out at 0.78 nM and the Ki was determined as 0.48 nM.

On to `O=C(CCC(C(=O)NCc1cccc(C(F)(F)F)c1)N1C(=O)C(N2C(=O)OCC2c2ccccc2)C1C=Cc1ccccc1)NCCN1CCCCC1` (centres unmarked) [Example 87], for which the IC50 is 15 nM.
